Where “and” joins values, the source holds several entries; their conditions need not be identical. Equal values may be shown once. Entries after “also recorded” stand apart in the source; their conditions may differ.
Experiments:
[1] = system: regional cerebral blood flow; test: Regional cerebral blood flow by laser speckle contrast imaging after tMCAO; format: in vivo, mouse; settings: for % CBF: Fig S10c/S10f, single mice
Experimental: Regional cerebral blood flow was measured using a two-dimensional laser speckle contrast analysis system (PeriCam PSI High Resolution with PIMSoft, Perimed)[65]. Isoflurane-anesthetized mice were head-fixed using stereotaxic equipment during imaging. The skin was retracted to expose the intact skull. Images were taken at 19 frames/second with averaging. Average signal intensity was taken from fixed-size (0.5-mm^2) regions of interest drawn over the parietal bone plate on the ipsi (IL)- and contralateral (CL) sides. Percent perfusion values were taken in comparison with the mean values of the pre-ischemic ipsilateral side. Five consecutive images at each time period per animal were averaged for analysis. […]
cerebral blood flow (rCBF) in ischemic mice. a and d Representative two-dimensional laser speckle contrast images of rCBF. Vehicle (DMSO), ZT-1a (A, 2.5 mg/kg), or Closantel (D, 1.25 mg/kg, i.p.) was administered i.p. at 3 hr and again at 8 hr post-reperfusion after MCAO. Pseudocolor scale bar indicates relative signal intensity. b and e No changes of rCBF were detected in the non-ischemic […]
contralateral (CL) hemispheres of vehicle-control or ZT-1a-treated (b) or Closantel-treated mice (e).
Data are mean ± SD, n = 3. c and f Similar reductions and recoveries of rCBF in the ischemic ipsilateral hemispheres (IL) were detected in the ZT-1a-treated (c) or Closantel-treated ischemic mice (f), and neither differed from vehicle-injected mice. Data are mean ± SEM, n = 3.

KCC3 pThr1048 [2] = test: Pharmacodynamic study, KCC3 phosphorylation in brain of naive mice; format: in vivo, mouse; settings: for pTh1048 / KCC3: Fig S8a (brain)
Experimental: (§1) To define ZT-1a efficacy in naive mice in vivo, we examined phosphorylation of SPAK, NKCC1, and NCC in kidney, and phosphorylation of SPAK, NKCC1, and KCC3 in brain, after intraperitoneal (i.p.) administration of either ZT-1a (10, 30, 50, and 100 mg/kg) or Closantel (50 mg/kg as a reference). […]
(§2) 5. Pharmacodynamic (PD) study
(§3) Male C57BL/6j wild-type mice (6 weeks old, Charles River Laboratories Edinburgh UK) were treated with ZT-1a (in DMSO, Sigma) by subcutaneous injection at doses of 0, 3, 10, 30, 50 and 100 mg/kg. 50 mg/kg Closantel was administered as a comparative control. Vehicle control mice were treated with an equal volume of DMSO solution. One hour after administration, mice were sacrificed by cervical dislocation, and kidney and brain tissues were rapidly dissected and snap-frozen in liquid nitrogen. Age- […]
(§4) free conditions at the University of Dundee (UK) as described in our recent study1. Animal experiments and breeding were approved by the University of Dundee ethical committee and performed under a […]
(§5) Policy on the Care, Welfare and Treatment of Animals, and regulations set by the University of Dundee and the U.K. Home Office. […]
(§6) Brain and kidney tissues were collected at 60 min post injection, and proteins subjected to immunoblot were probed with antibodies specific for phosphorylated forms of SPAK,

NKCC1 pThr203/207/212 [3] = test: Immunoblot of NKCC1 p-Thr203/Thr207/Thr212 in HEK-293 cells; format: cell-based, human; settings: for pNKCC1/NKCC1 band intensity ratio: single replicates
NCC pThr46/50/55/60 = test: Pharmacodynamic study, NCC phosphorylation in kidney of naive mice; format: in vivo, mouse; settings: Fig S8b (kidney)
Experimental: as §1, §2, §3, §4, §5, §6

KCC3 pThr1048 [4] = test: Immunoblot of KCC site 2 phosphorylation (KCC3 Thr1048) in HEK-293 cells transfected with FLAG-KCC3; format: cell-based, human; settings: for T1007/KCC2 band intensity ratio: single replicates
NKCC1 pThr203/207/212 [5] = test: Pharmacodynamic study, NKCC1 phosphorylation in brain of naive mice; format: in vivo, mouse; settings: for pTh203.207.212 / NKCC1: Fig S8a (brain)
Experimental: as §1, §2, §3, §4, §5, §6

SPAK phosphorylation = test: Pharmacodynamic study, SPAK phosphorylation in brain of naive mice; format: in vivo, mouse; settings: Fig S8a (brain)
Experimental: as §1, §2, §3, §4, §5, §6

[6] = Immunoblot of KCC site 1 phosphorylation (KCC3 Thr991) in HEK-293 cells transfected with FLAG-KCC3; format: cell-based, human

Cc1cc(C(C#N)c2ccc(Cl)cc2)c(Cl)cc1NC(=O)c1cc(Cl)ccc1O (stereo not shown) [ZT-1a, 5-chloro-N-(5-chloro-4-((4-chlorophenyl)(cyano)methyl)-2-methylphenyl)-2-hydroxybenzamide]
% CBF ([1]; mcao 20min): 32% and 31% and 24% | % CBF ([1]; mcao 50 min): 30% and 27% and 22% | regional cerebral blood flow (rCBF) ([1]; within the 24-h post-stroke period, ischemic mice): does not affect regional cerebral blood flow; also recorded: unaffected | KCC3 phosphorylation (pThr1048) in naive brains (KCC3 pThr1048 [2]; 60 min after administration): neither drug had reduced | pTh1048 / KCC3 (KCC3 pThr1048 [2]; 10 mg/kg): 1.01 and 0.99 and 1 and 0.95 | pTh1048 / KCC3 (KCC3 pThr1048 [2]; 30 mg/kg): 1.05 and 0.97 and 0.9 and 0.96 | pTh1048 / KCC3 (KCC3 pThr1048 [2]; 50 mg/kg): 0.87 and 0.92 and 1.06 and 0.97 | pTh1048 / KCC3 (KCC3 pThr1048 [2]; 100 mg/kg): 0.94 and 0.87 and 0.99 and 0.9 | inhibition at 1 µM (NKCC1 pThr203/207/212 [3]; Homo sapiens, HEK293, read-out: inhibition of phosphorylation of NKCC1 p-Thr203/207/212, 1 µM ZT-1a, HEK-293 cells, n = 4): 72 ± 5.2% | pNKCC1/NKCC1 band intensity ratio (NKCC1 pThr203/207/212 [3]; Hypotonic low Cl, 1 uM): 0.292 and 0.311 and 0.247 and 0.273 | pNKCC1/NKCC1 band intensity ratio (NKCC1 pThr203/207/212 [3]; Hypotonic low Cl, 3 uM): 0.113 and 0.104 and 0.103 and 0.1063 | pNKCC1/NKCC1 band intensity ratio (NKCC1 pThr203/207/212 [3]; Hypotonic low Cl, 10 uM): 0.004 and 0.007 and 0.005 and 0.003 | pNKCC1/NKCC1 band intensity ratio (NKCC1 pThr203/207/212 [3]; Isotonic control, 1 uM): 0.133 and 0.075 and 0.106 and 0.093 | pNKCC1/NKCC1 band intensity ratio (NKCC1 pThr203/207/212 [3]; Isotonic control, 3 uM): 0.048 and 0.046 and 0.043 and 0.041 | pNKCC1/NKCC1 band intensity ratio (NKCC1 pThr203/207/212 [3]; Isotonic control, 10 uM): 0.006 (2×) and 0.004 and 0.005 | pTh46.50.55 / NCC (NCC pThr46/50/55/60; 10 mg/kg): 1.78 and 1.82 and 2.81 and 2.21 | pTh60 / NCC (NCC pThr46/50/55/60; 10 mg/kg): 1.01 and 0.99 and 1 and 0.94 | pTh46.50.55 / NCC (NCC pThr46/50/55/60; 30 mg/kg): 2.61 and 1.78 and 2.06 and 1.98 | pTh60 / NCC (NCC pThr46/50/55/60; 30 mg/kg): 1.05 and 0.97 and 0.9 and 1.01 | pTh46.50.55 / NCC (NCC pThr46/50/55/60; 50 mg/kg): 0.4 and 0.7 and 0.69 and 0.55 | pTh46.50.55 / NCC (NCC pThr46/50/55/60; 100 mg/kg): 0.68 and 0.46 and 0.41 | T1007/KCC2 band intensity ratio (KCC3 pThr1048 [4]; Hypotonic low Cl, 1 uM): 0.223 and 0.282 and 0.213 and 0.243 | T1007/KCC2 band intensity ratio (KCC3 pThr1048 [4]; Hypotonic low Cl, 3 uM): 0.041 and 0.093 and 0.036 and 0.063 | T1007/KCC2 band intensity ratio (KCC3 pThr1048 [4]; Hypotonic low Cl, 10 uM): 0.027 and 0.033 and 0.023 and 0.03 | T1007/KCC2 band intensity ratio (KCC3 pThr1048 [4]; Isotonic control, 1 uM): 0.174 and 0.099 and 0.126 and 0.132 | T1007/KCC2 band intensity ratio (KCC3 pThr1048 [4]; Isotonic control, 3 uM): 0.134 and 0.118 and 0.103 and 0.121 | T1007/KCC2 band intensity ratio (KCC3 pThr1048 [4]; Isotonic control, 10 uM): 0.09 and 0.069 and 0.044 and 0.053 | KCC3 pThr1048 / KCC3 (KCC3 pThr1048 [4]; ZT-1a 1 uM, Fig S4b): 0.35 and 0.401 and 0.302 and 0.261 | NKCC1 phosphorylation (pThr203/207/212) in naive brains (NKCC1 pThr203/207/212 [5]; 60 min after administration): neither drug had reduced | pTh203.207.212 / NKCC1 (NKCC1 pThr203/207/212 [5]; 10 mg/kg): 0.75 and 0.66 and 0.74 and 0.69 | pTh203.207.212 / NKCC1 (NKCC1 pThr203/207/212 [5]; 30 mg/kg): 0.62 and 0.59 and 0.64 and 0.61 | pTh203.207.212 / NKCC1 (NKCC1 pThr203/207/212 [5]; 50 mg/kg): 0.66 and 0.75 and 0.63 and 0.69 | pTh203.207.212 / NKCC1 (NKCC1 pThr203/207/212 [5]; 100 mg/kg): 0.61 and 0.67 and 0.74 and 0.58 | pSer373 / SPAK (SPAK phosphorylation; 10 mg/kg): 0.64 and 0.68 and 0.52 and 0.61 | pSer373 / SPAK (SPAK phosphorylation; 30 mg/kg): 0.55 and 0.6 and 0.56 and 0.52 | pSer373 / SPAK (SPAK phosphorylation; 50 mg/kg): 0.56 and 0.65 and 0.61 and 0.53 | pSer373 / SPAK (SPAK phosphorylation; 100 mg/kg): 0.67 and 0.54 and 0.58 and 0.5 | T906/KCC2 band intensity ratio ([6]; Hypotonic low Cl, 1 uM, single replicates): 0.214 and 0.239 and 0.189 and 0.203 | T906/KCC2 band intensity ratio ([6]; Hypotonic low Cl, 3 uM, single replicates): 0.058 and 0.074 and 0.03 and 0.063 | T906/KCC2 band intensity ratio ([6]; Hypotonic low Cl, 10 uM, single replicates): 0.03 and 0.034 and 0.02 and 0.026 | T906/KCC2 band intensity ratio ([6]; Isotonic control, 1 uM, single replicates (Fig 2 source data)): 0.356 and 0.264 and 0.316 and 0.279 | T906/KCC2 band intensity ratio ([6]; Isotonic control, 3 uM, single replicates): 0.166 and 0.176 and 0.153 and 0.142 | T906/KCC2 band intensity ratio ([6]; Isotonic control, 10 uM, single replicates): 0.065 and 0.041 and 0.054 and 0.049

From publication PMC6946680, “Modulation of brain cation-Cl^− cotransport via the SPAK kinase inhibitor ZT-1a” (Nature Communications, 2020)
